From patent US9775354B2, “Herbicidal composition having improved plant safety” (priority 2013, dated 2017) come the findings set out here.

Holding throughout (assay type): in vivo
Series [1] relates to wheat (Triticum aestivum L.). Briefly: Test Example 1: growth inhibition of wheat after foliar treatment (pot test). The settings on record: compound B not added, seventh day after treatment. From the text: Upland field soil was put into a 1/1,000,000 ha pot, and seeds of wheat (Triticum aestivum L.) were sown. […] Destiny HC, manufactured by Winfield Solutions, LLC.) and applied for foliar treatment by a small sprayer. On the seventh day after treatment, the state of growth of the wheat was visually observed to determine the growth inhibition rate (%) in accordance with the following evaluation standards.

In series [2] the test system is perennial ryegrass (Lolium perenne L.). Briefly: Test Example 3: chlorosis in perennial ryegrass after foliar treatment (pot test). The settings on record: compound A 100 g/ha, compound B not added; sixth day after treatment; degree 0 to 5.0. From the text: Degree of chlorosis=0 (equal to the non-treated area) to 5.0 (complete chlorosis) Upland field soil was put into a 1/1,000,000 ha pot, and seeds of perennial ryegrass (Lolium perenne L.) were sown. […] Destiny HC, manufactured by Winfield Solutions, LLC.) and applied for foliar treatment by a small sprayer.

For series [3], the system named is timothy (Phleum pratense L.). Kind of series: Test Example 4: growth inhibition of timothy after foliar treatment (pot test). The settings on record: compound A 100 g/ha, compound B not added; sixth day after treatment. From the text: (§1) On the seventh day after treatment, the state of growth of the wheat was visually observed to determine the growth inhibition rate (%) in accordance with the following evaluation standards. The results are shown in Table 1. • Growth inhibition rate (%)=0 (equivalent to the non-treated area) to 100 (complete kill)
Upland field soil was put into a 1/1,000,000 ha pot, and seeds of timothy (Phleum pratense L.) were sown. When the timothy reached 1.6 to 2.0-leaf stage, predetermined amounts of compound A and isoxadifen-ethyl, mefenpyr-diethyl or cloquintocet-mexyl were diluted with water (in an amount corresponding to 300 L/ha) containing 0.5 vol % of an agricultural adjuvant (tradename: Destiny HC, manufactured by Winfield Solutions, LLC) and applied for foliar treatment by a small sprayer.
On the sixth day after treatment, the state of growth of the timothy was visually observed to evaluate the growth inhibition rate (%) in the same manner as in the above Test Example 1.

The test system of series [4] is bentgrass (Agrostis stolonifera L.). Briefly: Test Example 5: growth inhibition of bentgrass after foliar treatment (pot test). The note with it: compound A 100 g/ha, compound B not added; 24th day after treatment.
Excerpt: as §1
Upland field soil was put into a 1/1,000,000 ha pot, and turf of bentgrass (Agrostis stolonifera L.) was put. When the bentgrass reached a height of […], predetermined amounts of compound A and mefenpyr-diethyl or cloquintocet-mexyl were diluted with water (in an amount corresponding to 300 L/ha) containing 0.5 vol % of an agricultural adjuvant (tradename: Destiny HC, manufactured by Winfield Solutions, LLC) and applied for foliar treatment by a small sprayer.
On the 24th day after treatment, the state of growth of the bentgrass was visually observed to determine the growth inhibition rate (%) in the same manner as in the above Test Example 1.

Series [5] concerns kentucky bluegrass (Poa pratensis L.). Kind of series: Test Example 6: chlorosis in kentucky bluegrass after foliar treatment (pot test). The settings on record: compound A 100 g/ha, compound B not added; seventh day after treatment; degree 0 to 5.0. The procedure: Degree of chlorosis=0 (equal to the non-treated area) to 5.0 (complete chlorosis)
Upland field soil was put into a 1/1,000,000 ha pot, and seeds of kentucky bluegrass (Poa pratensis L.) were sown. When the kentucky bluegrass reached 2-leaf stage, predetermined amounts of compound A and isoxadifen-ethyl, mefenpyr-diethyl or cloquintocet-mexyl were diluted with water (in an amount corresponding to 300 L/ha) containing 0.5 vol % of an agricultural adjuvant (tradename: Destiny HC, manufactured by Winfield Solutions, LLC) and applied for foliar treatment by a small sprayer.
On the seventh day after treatment, chlorosis which developed in the kentucky bluegrass was evaluated in the same manner as in the above Test Example 2.

For `CCn1ncc(C(=O)c2ccc(S(C)(=O)=O)c(OCCOC)c2C)c1OC(C)OC(=O)OC` (stereo not drawn) [Compound A, 1-(1-ethyl-4-(3-(2-methoxyethoxy)-2-methyl-4-(methylsulfonyl)benzoyl)-1H-pyrazol-5-yloxy)ethyl methyl carbonate], the “Growth inhibition rate (%) of wheat” value in series [1] (compound A 100 g/ha) and in series [1] (compound A 150 g/ha) was 40% throughout. The “Chlorosis in perennial ryegrass” value in series [2] was found to be 0.4. In addition, the “Growth inhibition rate (%) of timothy” value in series [3] is on record as 10%. For the same molecule, in series [4], the “Growth inhibition of bentgrass (%)” value was found to be 50%. For the same molecule, the “Chlorosis in kentucky bluegrass” value in series [5] is listed as 1.7.
